Data: patent publication US10202388B2, “Fused-ring compounds, pharmaceutical composition and uses thereof” (SHANGHAI DE NOVO PHARMATECH CO., LTD., priority 2015, dated 2019)

Tests used:
[1] = molecular target: Human recombinant IDO1 (Homo sapiens (Human), UniProt P14902); experiment: IDO1 enzymatic assay (UV absorption at 321 nm); type: biochemical; conditions: human recombinant IDO1, 80 min incubation, room temperature; read-out: hIDO1 IC50
Protocol: The detailed experimental method is as follow:
The compounds described in this disclosure were dissolved in 10% DMSO to predefined concentration. All of the reactions were conducted at room temperature in this disclosure. Human recombinant IDO1 (BPS Bioscience) was added so that its concentration was 200 nm in the reaction buffer solution (200 μL). […] 10 μL test compound solution was added into the above reaction solution (200 μL), so that the final concentration of DMSO in all reaction wells was 0.5%. % concentration was volume %. After 80 min incubation of the reaction solution, the UV absorbance was measured using TECAN Infinite M1000 plate reader. For the negative control (blank), 10 μl of the assay buffer was added instead of the IDO1
All reagents (excluding human recombinant IDO1) were purchased from Sigma Aldrich, MO, USA.
(§1) The percent activity in the presence of each compound was calculated according to the following equation: % activity=[(A−Ab)/(At−Ab)]×100, where A=the absorption signal in the presence of the compound, Ab=the absorption signal of blank, At=the absorption signal in the absence of the compound. […] The IC50 was calculated using non-linear regression in Graph Pad Prism® 4.

[2] = molecular target: recombinant TDO2 (Homo sapiens (Human), UniProt P48775); experiment: TDO2 enzymatic assay (UV absorption at 321 nm); type: biochemical; conditions: 50 nM TDO2, 200 μM tryptophan, 75 min
recombinant TDO2, sequence (P48775 whole entry, species assumed): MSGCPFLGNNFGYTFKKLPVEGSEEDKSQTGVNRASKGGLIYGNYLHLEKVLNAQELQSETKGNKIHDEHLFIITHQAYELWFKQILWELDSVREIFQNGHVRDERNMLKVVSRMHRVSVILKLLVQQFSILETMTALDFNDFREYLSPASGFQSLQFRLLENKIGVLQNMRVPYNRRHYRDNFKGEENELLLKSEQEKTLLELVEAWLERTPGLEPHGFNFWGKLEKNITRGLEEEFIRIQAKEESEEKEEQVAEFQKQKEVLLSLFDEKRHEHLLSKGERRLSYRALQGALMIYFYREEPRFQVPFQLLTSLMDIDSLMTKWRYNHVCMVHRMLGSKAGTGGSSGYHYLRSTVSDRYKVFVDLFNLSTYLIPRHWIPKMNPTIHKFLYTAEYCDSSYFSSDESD
Protocol: The TDO2 enzymatic assay was performed by UV absorption using a recombinant TDO2 and L-Tryptophan substrate. The UV absorption signal at 321 nm is correlated with the amount of N-formylkynurenine reaction product of TDO2. The compounds were diluted in 10% DMSO and 5 μL of the dilution was added to a 100 μL reaction so that the final concentration of DMSO is 0.5% in all of reactions. All of the reactions were conducted at room temperature. The 100 μL reaction mixture in TDO2 Assay Buffer contains 50 nM TDO2, the indicated amount of the inhibitor, 200 μM tryptophan, and the coupled reaction components. The reaction mixture incubated for 75 min prior to reading the UV absorption signal. For the negative control (blank), 5 μl of the assay buffer was added instead of the TDO2.
as §1, with “Absorption signals were measured using a Tecan Infinite M1000 plate reader. Binding experiments were performed in duplicate at each concentration. The percent” for “The percent”

[3] = molecular target: HeLa cell IDO1 (Homo sapiens (Human), UniProt P14902); experiment: HeLa cell based IDO1 inhibition assay (kynurenine readout, IFN-γ induced); conditions: HeLa cells
HeLa cell IDO1, sequence (P14902 whole entry): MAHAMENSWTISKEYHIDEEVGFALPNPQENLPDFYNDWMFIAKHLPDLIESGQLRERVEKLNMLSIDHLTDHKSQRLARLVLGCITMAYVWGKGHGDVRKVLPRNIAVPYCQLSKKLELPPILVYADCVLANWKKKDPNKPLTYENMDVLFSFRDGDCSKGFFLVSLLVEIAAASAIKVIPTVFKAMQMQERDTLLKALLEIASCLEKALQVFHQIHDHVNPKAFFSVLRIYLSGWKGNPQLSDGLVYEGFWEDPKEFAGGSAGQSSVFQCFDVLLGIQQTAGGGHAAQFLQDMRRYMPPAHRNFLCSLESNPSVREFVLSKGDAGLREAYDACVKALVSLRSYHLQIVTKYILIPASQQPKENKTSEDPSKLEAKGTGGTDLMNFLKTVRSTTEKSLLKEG
Protocol: HeLa cell line was purchased from ATCC, cultured in MEM/EBSS medium supplemented with 10% FBS, penn-step (100,000 U/L), non-essential amino acid (0.1 Mm), sodium pyruvate (1.0 Mm). Cells were cultured at 37° C., 95% humidity and 5% CO2. […] The detailed experimental method is as follow:
25,000 HeLa cells were placed on 96-well plates. Each well contained 100 μl culture medium, subsequently IFN-γ and test compounds at specific concentrations (concentration range between 10 μM and 1 Nm, so that the final volume of culture medium was 200 μL) were added and IFN-γ was used to induce IDO1 expression. After incubation, 140 μL supernatant was transferred to 96-well plates. After adding 6.1 N TCA (10 μL), the plates were continuously incubated at 50° C. for 30 min, to hydrolyze N-formylkynurenine produced by IDO to kynurenine. The reaction solution was then centrifuged at 2500 rpm for 10 min to remove precipitate. 100 μL/well supernatant was then transferred to another 96-well plate. 100 μL of 2% (w/v) 4-N,N-dimethyl aminobenzaldehyde acetic acid solution was added and incubated at room temperature for 10 min. The yellow color derived from kynurenine was recorded by measuring absorbance at 480 nm using a microplate reader (TECAN Infinite M1000 Pro).

[4] = test system: colon cancer MC38 cells; experiment: Subcutaneous MC38 mouse colon cancer syngeneic model in C57BL/6 mice; type: in vivo; conditions: single agent, s.c. MC38 tumors in female C57BL/6 mice, FIG. 1
Protocol: Female mice (C57BL/6, 6-8 week old) were purchased from Shanghai Laboratory Animal Center, Chinese Academy of Sciences, Shanghai, China. Mice were housed under pathogen-free conditions with autoclaved rodent chow and water available ad libitum. Each mouse was inoculated s.c. with colon cancer MC38 cells in 0.1 mL PBS over the right lower flank. When the tumor volume reached 40 mm^3, mice were randomized based on initial tumor volume measurements and treated with either vehicle or compound 23A-3. Tumor volumes were measured with electronic digital caliper and calculated using the formula length (mm)×width (mm)^2/2 and expressed in mm^3. Student's t-test was used to evaluate the statistical significance of observed differences.

Human recombinant IDO1, sequence (P14902 whole entry): as above

IC50 [1] [nM] | IC50 [2] [nM] | IC50 [3] [nM] | Compound | tumor growth inhibition (mean tumor volume versus dosing days) [4]
< 100 | < 500 |  | CC1(O)C2CC3CC1CC(C(O)CC1c4ccccc4-c4cncn41)(C3)C2 (centres unmarked) [Compound 11A-2] | 
< 100 |  | < 100 | OC(CC1c2c(F)cccc2-c2cncn21)C12CC3CC(CC(C3)C1)C2 (centres unmarked) [Compound 21] | 
< 100 |  | 100 to 500 | OC(CC1c2c(F)cccc2-c2cncn21)C12CC3CC(CC(O)(C3)C1)C2 (centres unmarked) [Compound 22] | 
< 100 |  | 100 to 500 | OC1C2CC3CC1CC([C@H](O)CC1c4c(F)cccc4-c4cncn41)(C3)C2 (some centres unmarked) [Compound 23A-1] | 
< 100 | < 500 | < 100 | OC1C2CC3CC1CC([C@@H](O)CC1c4c(F)cccc4-c4cncn41)(C3)C2 (some centres unmarked) [Compound 23A-3] | significant tumor growth inhibition effect
< 100 |  | < 100 | OC1C2CC3CC1CC([C@H](O)CC1c4c(F)cccc4-c4cncn41)(C3)C2 (some centres unmarked) [Compound 23A] | 
< 100 |  | 100 to 500 | OC(CC1c2c(F)cccc2-c2cncn21)C12CC3CC(CC(C3)C1)C2 (centres unmarked) [Compound 25] | 
< 100 | < 500 | < 100 | OC1C2CC3CC1CC([C@H](O)CC1c4c(F)cccc4-c4cncn41)(C3)C2 (some centres unmarked) [Compound 26A-3] | 
< 100 |  | < 100 | OC1C2CC3CC1CC([C@H](O)CC1c4c(F)cccc4-c4cncn41)(C3)C2 (some centres unmarked) [Compound 26A] | 
< 100 | < 500 | < 100 | O=S(=O)(Cc1ccccc1)NC1C2CC3CC1CC([C@H](O)CC1c4c(F)cccc4-c4cncn41)(C3)C2 (some centres unmarked) [Compound 45A-1] | 
100 to 500 | 1000 to 10000 | 100 to 500 | O=S(=O)(Cc1ccccc1)NC1C2CC3CC1CC([C@@H](O)CC1c4c(F)cccc4-c4cncn41)(C3)C2 (some centres unmarked) [Compound 45A-4] | 
< 100 |  | < 100 | O=S(=O)(Cc1ccccc1)NC1C2CC3CC1CC(C(O)CC1c4c(F)cccc4-c4cncn41)(C3)C2 (centres unmarked) [Compound 45A] | 
< 100 |  | < 100 | CS(=O)(=O)NC1C2CC3CC1CC(C(O)CC1c4c(F)cccc4-c4cncn41)(C3)C2 (centres unmarked) [Compound 46] | 
< 100 |  | < 100 | O=C(CC1CCCCC1)NC1C2CC3CC1CC(C(O)CC1c4c(F)cccc4-c4cncn41)(C3)C2 (centres unmarked) [Compound 49] | 
< 100 |  | < 100 | O=C(Nc1ccccc1)NC1C2CC3CC1CC(C(O)CC1c4c(F)cccc4-c4cncn41)(C3)C2 (centres unmarked) [Compound 55] | 
100 to 500 |  | < 100 | CC(C)(O)CCOC1C2CC3CC1CC(C(O)CC1c4c(F)cccc4-c4cncn41)(C3)C2 (centres unmarked) [Compound 58] | 
< 100 |  | < 100 | OCCOC1C2CC3CC1CC(C(O)CC1c4c(F)cccc4-c4cncn41)(C3)C2 (centres unmarked) [Compound 61A] | 
 | 10000 to 100000 |  | Nc1nonc1C(=NO)Nc1ccc(F)c(Cl)c1 [Ref. B, 4-amino-N-(3-chloro-4-fluorophenyl)-N′-hydroxy-1,2,5-oxadiazole-3-carboximidamide, reference compound] | 
100 to 500 |  | 500 to 1000 | OC(CC1c2ncccc2-c2cncn21)C12CC3CC(CC(C3)C1)C2 (centres unmarked) [compound 4] | 

Compound | IC50 [1] [nM] | IC50 [2] [nM] | IC50 [3] [nM] | tumor growth inhibition (mean tumor volume versus dosing days) [4]
OC1C2CC3CC1CC(C(O)CC1c4ccccc4-c4cncn41)(C3)C2 (centres unmarked) [Compound 14A] | < 100 |  | < 100 | 
